# Measured values reported in US9993494B2, “Compositions and methods for treating fibrotic disease” (eFFECTOR Therapeutics, Inc., priority 2014, dated 2018).
# Tested on: normal human lung fibroblasts
# Experiment: Ribosomal profiling: translational efficiency in TGFβ-treated fibroblasts
# Format: cell-based
# Details: TGFβ-treated fibroblasts
# How it was run: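 Genome-wide RPF and total RNA libraries (ARTseq, RNA-Seq) were made from lysates of cycloheximide-treated, PBS-washed cells. After trimming and human-genome mapping, per-gene coding-region counts were compared between RPF and RNA for translational efficiency. Genes scoring low in either fraction were dropped.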
structure (smiles),measurement,setting,value
"Cc1ccc(=O)n(-c2ccccc2)c1 [pirfenidone, 5-methyl-1-phenylpyridin-2-one]",renormalizing the translational profile of DNASE1L1,ENSG00000013563,− (− = <0.9)
same,renormalizing the translational profile of KITLG,ENSG00000049130,− (− = <0.9)
same,renormalizing the translational profile of ADAMTS6,ENSG00000049192,− (− = <0.9)
same,renormalizing the translational profile of LETMD1,ENSG00000050426,− (− = <0.9)
same,renormalizing the translational profile of PLEKHA5,ENSG00000052126,− (− = <0.9)
same,renormalizing the translational profile of EIF4B,ENSG00000063046,+ (+ = 0.9 to 1.5)
same,renormalizing the translational profile of RPL18,ENSG00000063177,+ (+ = 0.9 to 1.5)
same,renormalizing the translational profile of HIPK2,ENSG00000064393,− (− = <0.9)
same,renormalizing the translational profile of ASPM,ENSG00000066279,+ (+ = 0.9 to 1.5)
same,renormalizing the translational profile of RASSF1,ENSG00000068028,− (− = <0.9)
same,renormalizing the translational profile of PABPC1,ENSG00000070756,− (− = <0.9)
same,renormalizing the translational profile of RPL31,ENSG00000071082,+ (+ = 0.9 to 1.5)
same,renormalizing the translational profile of PLD1,ENSG00000075651,− (− = <0.9)
same,renormalizing the translational profile of EDN1,ENSG00000078401,− (− = <0.9)
same,renormalizing the translational profile of AURKA,ENSG00000087586,− (− = <0.9)
same,renormalizing the translational profile of EPB41L1,ENSG00000088367,− (− = <0.9)
same,renormalizing the translational profile of RPL6,ENSG00000089009,− (− = <0.9)
same,renormalizing the translational profile of P2RX7,ENSG00000089041,++ (++ = 1.5 to 2.0)
same,renormalizing the translational profile of KDM2B,ENSG00000089094,− (− = <0.9)
same,renormalizing the translational profile of RPLP0,ENSG00000089157,− (− = <0.9)
same,renormalizing the translational profile of IGBP1,ENSG00000089289,− (− = <0.9)
same,renormalizing the translational profile of IRAK3,ENSG00000090376,− (− = <0.9)
same,renormalizing the translational profile of PABPC4,ENSG00000090621,− (− = <0.9)
same,renormalizing the translational profile of FMO2,ENSG00000094963,+++ (+++ = >2.0)
same,renormalizing the translational profile of ACOT7,ENSG00000097021,− (− = <0.9)
same,renormalizing the translational profile of ATP5D,ENSG00000099624,− (− = <0.9)
same,renormalizing the translational profile of LGALS1,ENSG00000100097,+ (+ = 0.9 to 1.5)
same,renormalizing the translational profile of EIF3L,ENSG00000100129,− (− = <0.9)
same,renormalizing the translational profile of RPL3,ENSG00000100316,+ (+ = 0.9 to 1.5)
same,renormalizing the translational profile of CEP192,ENSG00000101639,− (− = <0.9)
same,renormalizing the translational profile of AMMECR1,ENSG00000101935,− (− = <0.9)
same,renormalizing the translational profile of PLP2,ENSG00000102007,− (− = <0.9)
same,renormalizing the translational profile of EIF3E,ENSG00000104408,− (− = <0.9)
same,renormalizing the translational profile of EEF1D,ENSG00000104529,− (− = <0.9)
same,renormalizing the translational profile of C19orf53,ENSG00000104979,− (− = <0.9)
same,renormalizing the translational profile of GLTSCR2,ENSG00000105373,+ (+ = 0.9 to 1.5)
same,renormalizing the translational profile of RAB3D,ENSG00000105514,+ (+ = 0.9 to 1.5)
same,renormalizing the translational profile of RPL18A,ENSG00000105640,+ (+ = 0.9 to 1.5)
same,renormalizing the translational profile of COMP,ENSG00000105664,− (− = <0.9)
same,renormalizing the translational profile of GLCCI1,ENSG00000106415,+ (+ = 0.9 to 1.5)
same,renormalizing the translational profile of CORO2A,ENSG00000106789,− (− = <0.9)
same,renormalizing the translational profile of GDF10,ENSG00000107623,− (− = <0.9)
same,renormalizing the translational profile of RPL28,ENSG00000108107,+ (+ = 0.9 to 1.5)
same,renormalizing the translational profile of RPL19,ENSG00000108298,− (− = <0.9)
same,renormalizing the translational profile of RASD1,ENSG00000108551,− (− = <0.9)
same,renormalizing the translational profile of NAT9,ENSG00000109065,− (− = <0.9)
same,renormalizing the translational profile of RPL34,ENSG00000109475,+ (+ = 0.9 to 1.5)
same,renormalizing the translational profile of CRYAB,ENSG00000109846,− (− = <0.9)
same,renormalizing the translational profile of GAPDH,ENSG00000111640,− (− = <0.9)
same,renormalizing the translational profile of C12orf57,ENSG00000111678,− (− = <0.9)
same,renormalizing the translational profile of MDFI,ENSG00000112559,− (− = <0.9)
same,renormalizing the translational profile of HBEGF,ENSG00000113070,− (− = <0.9)
same,renormalizing the translational profile of RPL24,ENSG00000114391,− (− = <0.9)
same,renormalizing the translational profile of EEF1B2,ENSG00000114942,− (− = <0.9)
same,renormalizing the translational profile of IFIH1,ENSG00000115267,+ (+ = 0.9 to 1.5)
same,renormalizing the translational profile of DPH5,ENSG00000117543,− (− = <0.9)
same,renormalizing the translational profile of PPL,ENSG00000118898,− (− = <0.9)
same,renormalizing the translational profile of PLEKHG1,ENSG00000120278,− (− = <0.9)
same,renormalizing the translational profile of LIAS,ENSG00000121897,− (− = <0.9)
same,renormalizing the translational profile of GPSM2,ENSG00000121957,− (− = <0.9)
same,renormalizing the translational profile of RPL21,ENSG00000122026,+ (+ = 0.9 to 1.5)
same,renormalizing the translational profile of RPL5,ENSG00000122406,+ (+ = 0.9 to 1.5)
same,renormalizing the translational profile of INHBA,ENSG00000122641,− (− = <0.9)
same,renormalizing the translational profile of CIT,ENSG00000122966,+ (+ = 0.9 to 1.5)
same,renormalizing the translational profile of RPL23,ENSG00000125691,+ (+ = 0.9 to 1.5)
same,renormalizing the translational profile of LAMP5,ENSG00000125869,− (− = <0.9)
same,renormalizing the translational profile of NECAB3,ENSG00000125967,− (− = <0.9)
same,renormalizing the translational profile of COX7C,ENSG00000127184,− (− = <0.9)
same,renormalizing the translational profile of LIF,ENSG00000128342,− (− = <0.9)
same,renormalizing the translational profile of MTUS1,ENSG00000129422,++ (++ = 1.5 to 2.0)
same,renormalizing the translational profile of ARHGEF6,ENSG00000129675,− (− = <0.9)
same,renormalizing the translational profile of RPL36,ENSG00000130255,+ (+ = 0.9 to 1.5)
same,renormalizing the translational profile of GDF15,ENSG00000130513,− (− = <0.9)
same,renormalizing the translational profile of ASS1,ENSG00000130707,− (− = <0.9)
same,renormalizing the translational profile of EIF2S3,ENSG00000130741,− (− = <0.9)
same,renormalizing the translational profile of RPL27,ENSG00000131469,− (− = <0.9)
same,renormalizing the translational profile of MATN3,ENSG00000132031,− (− = <0.9)
same,renormalizing the translational profile of PPARG,ENSG00000132170,+++ (+++ = >2.0)
same,renormalizing the translational profile of KDM6B,ENSG00000132510,− (− = <0.9)
same,renormalizing the translational profile of RARRES3,ENSG00000133321,− (− = <0.9)
same,renormalizing the translational profile of BIVM,ENSG00000134897,− (− = <0.9)
same,renormalizing the translational profile of ATP5G2,ENSG00000135390,+ (+ = 0.9 to 1.5)
same,renormalizing the translational profile of KRT7,ENSG00000135480,++ (++ = 1.5 to 2.0)
same,renormalizing the translational profile of HNRNPA1,ENSG00000135486,− (− = <0.9)
same,renormalizing the translational profile of IL6,ENSG00000136244,− (− = <0.9)
same,renormalizing the translational profile of RPL35,ENSG00000136942,− (− = <0.9)
same,renormalizing the translational profile of NOV,ENSG00000136999,− (− = <0.9)
same,renormalizing the translational profile of IER3,ENSG00000137331,− (− = <0.9)
same,renormalizing the translational profile of DDX60,ENSG00000137628,− (− = <0.9)
same,renormalizing the translational profile of RPLP1,ENSG00000137818,+ (+ = 0.9 to 1.5)
same,renormalizing the translational profile of PAQR5,ENSG00000137819,− (− = <0.9)
same,renormalizing the translational profile of AOX1,ENSG00000138356,− (− = <0.9)
same,renormalizing the translational profile of FGF5,ENSG00000138675,+ (+ = 0.9 to 1.5)
same,renormalizing the translational profile of PDE5A,ENSG00000138735,− (− = <0.9)
same,renormalizing the translational profile of GAS2L3,ENSG00000139354,− (− = <0.9)
same,renormalizing the translational profile of DIAPH3,ENSG00000139734,++ (++ = 1.5 to 2.0)
same,renormalizing the translational profile of MYO19,ENSG00000141140,− (− = <0.9)
same,renormalizing the translational profile of RPL13A,ENSG00000142541,+ (+ = 0.9 to 1.5)
same,renormalizing the translational profile of RPL11,ENSG00000142676,− (− = <0.9)
same,renormalizing the translational profile of ACTA1,ENSG00000143632,+ (+ = 0.9 to 1.5)
same,renormalizing the translational profile of PLEKHA6,ENSG00000143850,− (− = <0.9)
same,renormalizing the translational profile of RPL32,ENSG00000144713,− (− = <0.9)
same,renormalizing the translational profile of RPL37,ENSG00000145592,+ (+ = 0.9 to 1.5)
same,renormalizing the translational profile of BTF3,ENSG00000145741,− (− = <0.9)
same,renormalizing the translational profile of HIGD2A,ENSG00000146066,+ (+ = 0.9 to 1.5)
same,renormalizing the translational profile of CREB5,ENSG00000146592,+ (+ = 0.9 to 1.5)
same,renormalizing the translational profile of DENND2A,ENSG00000146966,− (− = <0.9)
same,renormalizing the translational profile of RPL10,ENSG00000147403,+ (+ = 0.9 to 1.5)
same,renormalizing the translational profile of EIF3H,ENSG00000147677,− (− = <0.9)
same,renormalizing the translational profile of RPL7A,ENSG00000148303,+ (+ = 0.9 to 1.5)
same,renormalizing the translational profile of EIF3M,ENSG00000149100,− (− = <0.9)
same,renormalizing the translational profile of FAU,ENSG00000149806,− (− = <0.9)
same,renormalizing the translational profile of CCDC102B,ENSG00000150636,++ (++ = 1.5 to 2.0)
same,renormalizing the translational profile of FRMD4A,ENSG00000151474,− (− = <0.9)
same,renormalizing the translational profile of HOMER1,ENSG00000152413,− (− = <0.9)
same,renormalizing the translational profile of PLEKHH2,ENSG00000152527,− (− = <0.9)
same,renormalizing the translational profile of ANKH,ENSG00000154122,− (− = <0.9)
same,renormalizing the translational profile of ABCA6,ENSG00000154262,− (− = <0.9)
same,renormalizing the translational profile of OBSCN,ENSG00000154358,− (− = <0.9)
same,renormalizing the translational profile of ADAMTS5,ENSG00000154736,− (− = <0.9)
same,renormalizing the translational profile of OXA1L,ENSG00000155463,− (− = <0.9)
same,renormalizing the translational profile of C9orf85,ENSG00000155621,− (− = <0.9)
same,renormalizing the translational profile of RPL30,ENSG00000156482,+ (+ = 0.9 to 1.5)
same,renormalizing the translational profile of EEF1A1,ENSG00000156508,+ (+ = 0.9 to 1.5)
same,renormalizing the translational profile of NRG1,ENSG00000157168,− (− = <0.9)
same,renormalizing the translational profile of ADAMTS4,ENSG00000158859,− (− = <0.9)
same,renormalizing the translational profile of RPL8,ENSG00000161016,− (− = <0.9)
same,renormalizing the translational profile of RPL26,ENSG00000161970,+ (+ = 0.9 to 1.5)
same,renormalizing the translational profile of RPL29,ENSG00000162244,− (− = <0.9)
same,renormalizing the translational profile of CAMK2N1,ENSG00000162545,− (− = <0.9)
same,renormalizing the translational profile of IGFBP7,ENSG00000163453,− (− = <0.9)
same,renormalizing the translational profile of RPL22L1,ENSG00000163584,+ (+ = 0.9 to 1.5)
